The record followed here is patent publication US11535599B2, “Benzisoxazole derivative” (Sumitomo Pharma Co., Ltd., priority 2020, dated 2022).

Assay [1] concerns unilateral lesion model of nigrostriatal dopamine neuron induced with 6-OHDA. Nature of the assay: Extending duration of levodopa-induced rotational behavior in 6-OHDA unilateral lesion model. It is filed as in vivo, rat. Particulars: Examples 10 or 30 mg/kg oral; rasagiline 0.6 mg/kg; with levodopa 5 mg/kg i.p.
Assay [2] concerns tacrine-induced Parkinson's disease tremor model. Nature of the assay: Anti-tremor effect in tacrine-induced Parkinson's disease tremor model. It is filed as in vivo, rat. The note with it: Example 1 10-100 mg/kg, Example 13 3-100 mg/kg oral; tacrine 2.5 mg/kg i.p.; counted 10 minutes. The source says:
One of the causes of tremor in Parkinson's disease is thought to be a decrease of intracerebral dopamine content, said decrease can hyper-activate the cholinergic nervous system in a counteractive manner to cause the symptom. In the present model, an acetylcholinesterase inhibitor activates the cholinergic nervous system, which breaks down the balance between intracerebral dopamine and acetylcholine to initiate a tremor symptom. Thus, the model is well known as a drug-induced model suffering from tremor in Parkinson's disease. With the present model, the effect of the present compound for inhibiting the tremor in Parkinson's disease was evaluated.
In the present test, male Slc: SD rats (Japan SLC, Inc.) were used. The present compound (Example 1 (10 mg/kg, 30 mg/kg, or 100 mg/kg), Example 13 (3 mg/kg, 10 mg/kg, 30 mg/kg, or 100 mg/kg)) was orally administered to the rat. One hour later, tacrine (2.5 mg/kg) was intraperitoneally administered to the rat. Ten minutes after the administration of tacrine, the number of tremulous jaw movements was counted for 10 minutes.

Another assay concerns the target human CA-II (Homo sapiens (Human), UniProt P00918). Kind of assay: Activity for inhibiting carbonic anhydrase (CA). Format: biochemical. The note with it: 4-nitrophenyl acetate substrate. Here is the method: CA is a zinc metalloenzyme family which catalyzes reversible hydration between carbon dioxide, and bicarbonate and proton.
As a substance for decomposition by CA-II, 4-nitrophenyl acetate was used herein. 4-Nitrophenyl acetate is […] with CA-II to produce 4-nitrophenol. […] To the diluted solution were added […] (final concentration: 5 mmol/L) and the present compound of each concentration, and the mixture was incubated at 37° C. under shading for 30 minutes. […] The IC50 of the compound was obtained through the two-parameter logistic model with the inhibitory rate data in each concentration which was obtained from plural trials.

The test system of assay [3] is harmaline-induced essential tremor model. Nature of the assay: Anti-tremor effect in harmaline-induced essential tremor model. It is filed as in vivo, mouse. Particulars: Examples 1, 13: 25 or 50 mg/kg, Example 14: 3.125-25 mg/kg oral; β-propranolol 10 mg/kg i.p. Here is the method:
As an animal model of essential tremor, an animal administrated with harmaline is broadly used in its evaluation test. […] The effect of the present compounds for harmaline-acute-administration-induced tremor was studied. To male Crl: CD1 mice (6-7 weeks old) (CHARLES RIVER LABORATORIES JAPAN, INC.), harmaline (30 mg/kg) was intraperitoneally administered to induce tremor. The present compound (Example 1 (25 mg/kg or 50 mg/kg), Example 13 (25 mg/kg or 50 mg/kg), or Example 14 (3.125 mg/kg, 6.25 mg/kg, 12.5 mg/kg, or 25 mg/kg)) was orally administered to the mouse one hour before the administration of harmaline. And, saline or β-propranolol (10 mg/kg) which is a positive control compound was intraperitoneally administered to the mouse 20 minutes before the administration of harmaline. 35 minutes before the administration of harmaline, the mouse was put into a measurement cage (an acrylic cylinder set in a horizontal direction, φ 65 mm, length 145 mm), one cage to one mouse, said measurement cage was in a soundproof box of a startle response instrument (O'hara & Co., Ltd., Tokyo). The trembling that the mouse gave were recorded over time as tremor data. The animal was put into cage, and the data were recorded for 20 minutes just before (PRE) and just after (POST) the administration of harmaline. The time-series signal data were analyzed about frequency with an analysis software, VitalTracer and BIMUTAS II-A (both, Kissei Comtech Co., Ltd., Matsumoto-shi). At 12-15 Hz or 12-18 Hz as a frequency which increases with tremor, the spectrum amounts were extracted, and the tremor intensity T of each subject was calculated according to the following formula. T=POST/PRE

In another assay the target is Rat striatum MAOB (Rattus norvegicus (Rat), UniProt P19643). Kind of assay: Activity for inhibiting monoamine oxidase B (MAOB). It is filed as biochemical. The note with it: [14C] β-PEA substrate; read-out: Rat striatum MAOB IC50. Here is the method:
MAOB is an enzyme involved in oxidative de-amino acid reaction of an endogenous monoamine neurotransmitter such as dopamine. […] The effect of the present compounds for inhibiting MAOB in rat striatum and simian striatum was tested.
Mitochondria⋅synaptosome fraction containing MAOB was prepared according to the following procedure. To striata of male Slc: Wistar rat (Japan SLC, Inc.) or male cynomolgus monkey (HAMRI CO., LTD.) was added 0.32 mol/L aqueous sucrose by 10 mL per 1 gram as wet weight of the tissue, and the mixture was homogenized. The homogenate was centrifuged at 4° C. at 1,000 g for 10 minutes, and the obtained supernatant was centrifuged again at 4° C. at 17,200 g for 20 minutes. To the obtained precipitate was added a prepared buffer solution (10 mmol/L Tris-HCl buffer solution (pH 7.4), 0.25 mol/L aqueous sucrose, 0.5 mmol/L EDTA-2K) by 10 mL per 1 gram as wet weight of the original tissue, and the mixture was centrifuged again at 4° C. at 17,200 g for 20 minutes. To the obtained precipitate was added the prepared buffer solution by 40 mL per 1 gram as wet weight of the original tissue. The mixture was suspended to be used as an enzyme homogenate solution.
As a substance to be degraded by MAOB, ^14C-labeled β-phenylethylamine ([^14C] β-PEA) was used. [^14C] β-PEA and the present compound solution diluted to each concentration were incubated with the enzyme homogenate solution at 37° C. for a given period, and then the reaction was stopped by adding 3 mol/L cold HCl thereto. The reaction product was extracted with a mixture of water-saturated toluene and ethyl acetate (1:1). The supernatant organic layer was separated, a liquid scintillation cocktail (ACSII, GE Healthcare) was added to the separated organic layer, and the radioactivity was measured with a liquid scintillation counter (TRI-CARB 3100TR, Packard). The IC50 value of each compound was determined based on two parameter logistic model with the inhibitory data of each concentration, said data were obtained from plural trials.

Structures are written as SMILES.

Chain of Rat striatum MAOB (P19643 whole entry): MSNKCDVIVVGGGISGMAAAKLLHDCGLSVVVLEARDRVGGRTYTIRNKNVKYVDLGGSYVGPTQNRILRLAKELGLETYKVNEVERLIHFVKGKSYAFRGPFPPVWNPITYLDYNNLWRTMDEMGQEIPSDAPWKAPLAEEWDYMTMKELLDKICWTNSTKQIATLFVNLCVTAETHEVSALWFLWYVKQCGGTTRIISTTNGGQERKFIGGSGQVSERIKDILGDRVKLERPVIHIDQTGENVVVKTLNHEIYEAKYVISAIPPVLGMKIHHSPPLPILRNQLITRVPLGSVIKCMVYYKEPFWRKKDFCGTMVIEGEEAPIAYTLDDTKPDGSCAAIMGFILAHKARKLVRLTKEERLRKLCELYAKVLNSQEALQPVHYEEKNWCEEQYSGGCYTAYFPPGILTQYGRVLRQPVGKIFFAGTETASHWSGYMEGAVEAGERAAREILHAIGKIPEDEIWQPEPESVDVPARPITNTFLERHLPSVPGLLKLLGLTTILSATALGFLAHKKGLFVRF

Consider `CC(c1noc2ccccc12)S(N)(=O)=O` (stereo not shown) [Example 1, 1-(Benzo[d]isoxazol-3-yl)ethane-1-sulfonamide], for which, in assay [1], the “rotational number in the late phase (100-120 minutes)” value is given as “significantly increased the rotational number in the late phase”. For the same compound, the “number of tremulous jaw movements” value in assay [2] is listed as “significantly decreased the number of tremulous jaw movements per unit time”. Further, the IC50 (commonly the midpoint of a concentration-inhibition curve) at human CA-II stood at 26.5 µM; on Rat striatum MAOB, 349 µM. Also, the harmaline-induced tremor intensity entry in assay [3] was “inhibited harmaline-induced tremor”.
The corresponding values for `C[C@H](c1noc2ccccc12)S(N)(=O)=O` [Example 13, (1R)-1-(1,2-benzoxazol-3-yl)ethane-1-sulfonamide] are “significantly increased the rotational number in the late phase”, “significantly decreased the number of tremulous jaw movements per unit time”, 18.2 µM, over 600 µM and “inhibited harmaline-induced tremor”.
